# Assay results from the NIST ThermoML archive (doi:10.1021/je060441j).
# ± gives the expanded uncertainty stated by the source.
# Experiments:
# [1] = Liquid
# [2] = xn = mol fraction of the nth substance listed; conditions: 101 kPa, Liquid, x1 = 1
SMILES,"mass density ([1]; 298.15 K, 101.33 kPa)","mass density ([1]; 288.15 K, 101 kPa)","mass density ([1]; 293.15 K, 101 kPa)","mass density ([1]; 298.15 K, 101 kPa)","mass density ([1]; 303.15 K, 101 kPa)","mass density ([1]; 308.15 K, 101 kPa)","mass density ([1]; 313.15 K, 101 kPa)",mass density ([2]; 288.15 K),mass density ([2]; 293.15 K),mass density ([2]; 298.15 K),mass density ([2]; 303.15 K),mass density ([2]; 308.15 K),mass density ([2]; 313.15 K)
c1ccccc1 [benzene],873.582 ± 0.16 kg/m3,–,–,–,–,–,–,–,–,–,–,–,–
CO [methanol],–,796.093 ± 0.23 kg/m3,791.4 ± 0.23 kg/m3,786.694 ± 0.23 kg/m3,781.966 ± 0.24 kg/m3,777.213 ± 0.24 kg/m3,772.443 ± 0.24 kg/m3,–,–,–,–,–,–
CO [methanol] + ClC(Cl)Cl,–,–,–,–,–,–,–,796.093 ± 0.23 kg/m3,791.4 ± 0.23 kg/m3,786.694 ± 0.23 kg/m3,781.966 ± 0.24 kg/m3,777.213 ± 0.24 kg/m3,772.443 ± 0.24 kg/m3
ClC(Cl)Cl [trichloromethane],–,1498.08 ± 0.47 kg/m3,1488.64 ± 0.46 kg/m3,1479.15 ± 0.45 kg/m3,1469.61 ± 0.45 kg/m3,1460.03 ± 0.44 kg/m3,1450.41 ± 0.43 kg/m3,–,–,–,–,–,–
